According to ChEMBL document CHEMBL1201862, “PubChem BioAssay data set” (2004):
The source made the active and inactive calls. Cut-off read from the data, not from the text of the source, for most assays here: actives have a measured EC50 and inactives only a lower limit.

Biological target: T1, Streptokinase A (Streptococcus pyogenes serotype M1, UniProt P10520)
T1 sequence (P10520 whole entry): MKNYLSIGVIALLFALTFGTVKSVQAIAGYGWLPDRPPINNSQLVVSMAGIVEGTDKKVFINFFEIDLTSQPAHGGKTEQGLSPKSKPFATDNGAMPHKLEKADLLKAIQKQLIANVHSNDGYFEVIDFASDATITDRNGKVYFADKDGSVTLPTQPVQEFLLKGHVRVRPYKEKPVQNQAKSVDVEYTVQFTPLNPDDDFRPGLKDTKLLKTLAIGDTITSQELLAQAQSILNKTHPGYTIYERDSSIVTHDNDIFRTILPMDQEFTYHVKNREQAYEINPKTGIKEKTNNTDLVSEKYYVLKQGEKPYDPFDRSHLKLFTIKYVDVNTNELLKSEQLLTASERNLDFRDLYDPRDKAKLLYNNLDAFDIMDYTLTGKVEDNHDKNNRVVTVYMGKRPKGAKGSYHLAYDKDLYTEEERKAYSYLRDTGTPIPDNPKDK
Assay: S. pyogenes streptokinase expression inhibitors, potency, dose response, plasminogen activation absorbance, OD405 (AID 1914);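 note: secreted streptokinase activity via plasminogen activation per viability signal from cell pellet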
Format: functional, Streptococcus pyogenes M1 GAS
Conditions: not given
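Throughout, for AC50: cells exposed to compound for roughly 70 hours or longer before luminescence read.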

Row | Structure (SMILES) | EC50
1 | N=C(N)c1ccc(OCCCCCOc2ccc(C(=N)N)cc2)cc1 | 27.9 µM (active)
2 | CC(C)=CCc1c2c(c(O)c3c(=O)c4c(oc13)-c1cc(O)c(O)cc1OC4C=C(C)C)C=CC(C)(C)O2 (stereo not drawn) [CYCLOHETERPHYLLIN] | > 150 µM (not active)

System: not listed separately
Assay: Luminescence Cell-Based Dose Retest to Confirm Inhibitors of Cancer Stem Cells. [Related pubchem assays (depositor defined):AID2717, AID2721]
Format: functional, Homo sapiens
Conditions: Homo sapiens

Row | Structure (SMILES) | AC50
3 | O=c1cc(N2CCCCC2)c(-c2ccccc2)nn1Cc1c(Cl)cccc1Cl | 4.43 µM (active)
4 | O=C(NCCc1c[nH]c2ccccc12)C1CCC(Cn2c(=S)[nH]c3ccccc3c2=O)CC1 (stereo not drawn) | 0.582 µM (active)

System: not listed separately
Assay: Luminescence Cell-Based Dose Response HTS to Identify Inhibitors of 5'UTR Stem-Loop Driven Prion Protein mRNA Translation in H4 Neuroglioblastoma Cells. [Related pubchem assays: 1827 (Project Summary), 1813 (Primary HTS)]
Format: functional
Conditions: not given

Row | Structure (SMILES) | EC50
5 | O=c1cc(N2CCCCC2)c(-c2ccccc2)nn1Cc1c(Cl)cccc1Cl | > 120 µM (not active)
6 | Clc1cccc(CN2CCN(Cc3nc(CCc4ccccc4)no3)CC2)c1 | 32.3 µM (active)
7 | Cc1cccc(C)c1NC(=O)COC(=O)c1cccc2c1C(=O)c1ccccc1C2=O | 13.3 µM (active)
8 | O=C(NCCc1c[nH]c2ccccc12)C1CCC(Cn2c(=S)[nH]c3ccccc3c2=O)CC1 (stereo not drawn) | > 120 µM (not active)
9 | N=C(N)c1ccc(OCCCCCOc2ccc(C(=N)N)cc2)cc1 | 10.9 µM (active)

Biological target: T2, Heat shock factor protein 1 (Mus musculus, UniProt P38532)
T2 sequence (P38532 whole entry): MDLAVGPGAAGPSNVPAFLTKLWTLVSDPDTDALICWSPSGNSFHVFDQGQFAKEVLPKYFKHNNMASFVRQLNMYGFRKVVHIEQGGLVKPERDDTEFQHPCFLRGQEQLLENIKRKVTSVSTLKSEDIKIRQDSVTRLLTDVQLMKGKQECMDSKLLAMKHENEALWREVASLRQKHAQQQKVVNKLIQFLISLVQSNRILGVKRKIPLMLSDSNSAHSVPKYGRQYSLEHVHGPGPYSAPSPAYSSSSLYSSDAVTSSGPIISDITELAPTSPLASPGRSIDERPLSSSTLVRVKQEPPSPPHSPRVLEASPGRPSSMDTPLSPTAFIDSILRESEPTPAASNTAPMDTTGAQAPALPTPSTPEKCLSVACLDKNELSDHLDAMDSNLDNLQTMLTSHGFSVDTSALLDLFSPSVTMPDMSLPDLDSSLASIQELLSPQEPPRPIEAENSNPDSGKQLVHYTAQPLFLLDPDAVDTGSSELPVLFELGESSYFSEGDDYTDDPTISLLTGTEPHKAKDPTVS
Assay: HSF1 potentiators in luciferase reporter cells, confirmation, cell-based, NIH3T3, luminescence, dose retest (AID 435004);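 note: stress induced by proteasome inhibitor MG132 added 30 min after compound; luciferase reporter driven by HSF1 response element in NIH3T3 cells; actives raise luminescence as potentiators of the MG132 stress response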
Format: functional
Conditions: not given

Row | Structure (SMILES) | EC50
10 | COc1ccc(N/C=C2/C(=O)NC(=S)N(Cc3ccccc3)C2=O)c(OC)c1 | 2.74 µM (active)
11 | Clc1cccc(CN2CCN(Cc3nc(CCc4ccccc4)no3)CC2)c1 | > 260 µM (inactive)
12 | Cc1cccc(C)c1NC(=O)COC(=O)c1cccc2c1C(=O)c1ccccc1C2=O | 30.8 µM (active)

System: not listed separately
Assay: inhibitors of firefly luciferase expression or activity, dose response, H4 neuroglioma cells, luminescence (AID 1990)
Format: functional, cell-based
Conditions: not given

Row | Structure (SMILES) | EC50
13 | O=c1cc(N2CCCCC2)c(-c2ccccc2)nn1Cc1c(Cl)cccc1Cl | 14.8 µM (active)
14 | Clc1cccc(CN2CCN(Cc3nc(CCc4ccccc4)no3)CC2)c1 | > 120 µM (not active)
15 | Cc1cccc(C)c1NC(=O)COC(=O)c1cccc2c1C(=O)c1ccccc1C2=O | 13.9 µM (active)
16 | O=C(NCCc1c[nH]c2ccccc12)C1CCC(Cn2c(=S)[nH]c3ccccc3c2=O)CC1 (stereo not drawn) | 16.9 µM (active)
17 | N=C(N)c1ccc(OCCCCCOc2ccc(C(=N)N)cc2)cc1 | 11.5 µM (active)

System: not listed separately
Assay: inhibitors of intracellular T. cruzi replication, confirmation, NIH3T3 host cells, beta-gal luminescence (AID 2044);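 note: intracellular parasites grown in NIH/3T3 mouse fibroblasts as host cells; luminescent beta-galactosidase reporter signal from transgenic T. cruzi replicating inside host cells; inhibitors lower the luminescence signal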
Format: functional, cell-based
Conditions: not given

Row | Structure (SMILES) | EC50
18 | O=C(NCCc1c[nH]c2ccccc12)C1CCC(Cn2c(=S)[nH]c3ccccc3c2=O)CC1 (stereo not drawn) | 1.07 µM (active)

System: not listed separately
Assay: C. albicans growth with fluconazole, confirmation, fluorescence, retest (AID 2467)
Format: functional, cell-based
Conditions: not given

Row | Structure (SMILES) | EC50
19 | O=C(O)c1cc(-c2ccc(O)cc2)on1 | > 38 µM (not active)
20 | FC(F)(F)COc1nc(OCC(F)(F)F)nc(N2CCN(c3ccccc3)CC2)n1 | > 38 µM (not active)
21 | Cc1ccc(C)c(NC(S)=NNC(=O)c2csc(C)c2)c1 | 0.947 µM (active)
22 | O=C(NC(=S)Nn1cnc2c(cnn2-c2ccccc2)c1=O)c1ccc(Cl)cc1 | > 38 µM (not active)
23 | CCCCCCCSc1nc(N)cc(O)n1 | 4.49 µM (active)
24 | O=S(=O)(NCC(c1ccco1)N1CCN(c2ccc(F)cc2)CC1)c1ccc2c(c1)OCCO2 (stereo not drawn) | > 38 µM (not active)
25 | Cc1n[nH]c(C)c1CCNCc1ccc(OCC(O)CN2CCCCC2)cc1 (stereo not drawn) | > 38 µM (not active)
26 | CC(C)=CCc1c2c(c(O)c3c(=O)c4c(oc13)-c1cc(O)c(O)cc1OC4C=C(C)C)C=CC(C)(C)O2 (stereo not drawn) [CYCLOHETERPHYLLIN] | > 38 µM (not active)

System: Streptococcus sp. 'group A'
Assay: growth inhibition of control SK(-) GAS strain, dose response, counter-screen for streptokinase expression inhibitor project, luminescence, kanamycin, BacTiterGlo, confirmation (AID 1900)
Format: functional, organism-based
Conditions: not given

Row | Structure (SMILES) | EC50
27 | O=c1cc(N2CCCCC2)c(-c2ccccc2)nn1Cc1c(Cl)cccc1Cl | 5.65 µM (active)
28 | N=C(N)c1ccc(OCCCCCOc2ccc(C(=N)N)cc2)cc1 | < 0.06 µM (active)
29 | CC(C)=CCc1c2c(c(O)c3c(=O)c4c(oc13)-c1cc(O)c(O)cc1OC4C=C(C)C)C=CC(C)(C)O2 (stereo not drawn) [CYCLOHETERPHYLLIN] | 2.95 µM (active)

Biological target: T3, RNA-binding protein pos-1 (Caenorhabditis elegans, UniProt G5EF15)
T3 sequence (G5EF15 whole entry): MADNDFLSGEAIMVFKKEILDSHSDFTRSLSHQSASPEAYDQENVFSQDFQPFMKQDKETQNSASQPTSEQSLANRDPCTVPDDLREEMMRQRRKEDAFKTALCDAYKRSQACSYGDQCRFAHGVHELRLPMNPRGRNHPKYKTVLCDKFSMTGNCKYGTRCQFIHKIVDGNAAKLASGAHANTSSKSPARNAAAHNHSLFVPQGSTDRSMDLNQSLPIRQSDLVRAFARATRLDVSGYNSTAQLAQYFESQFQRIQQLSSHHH
Assay: inhibitors of POS-1/mex-3 RNA binding, dose response, biochemical, fluorescence polarization (AID 1964);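 note: purified POS-1 fused to maltose binding protein made in E. coli; potency of compounds blocking POS-1 binding to fluorescent RNA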
Conditions: not given

Row | Structure (SMILES) | EC50
30 | COc1ccc(N/C=C2/C(=O)NC(=S)N(Cc3ccccc3)C2=O)c(OC)c1 | > 300 µM (inconclusive)

System: not listed separately
Assay: inhibitors of SNCA 5'UTR-driven reporter translation, confirmation, H4 neuroglioma cells, luminescence (AID 1988)
Format: functional, cell-based
Conditions: not given

Row | Structure (SMILES) | EC50
31 | O=c1cc(N2CCCCC2)c(-c2ccccc2)nn1Cc1c(Cl)cccc1Cl | > 120 µM (not active)
32 | Clc1cccc(CN2CCN(Cc3nc(CCc4ccccc4)no3)CC2)c1 | > 120 µM (not active)
33 | Cc1cccc(C)c1NC(=O)COC(=O)c1cccc2c1C(=O)c1ccccc1C2=O | > 120 µM (not active)
34 | O=C(NCCc1c[nH]c2ccccc12)C1CCC(Cn2c(=S)[nH]c3ccccc3c2=O)CC1 (stereo not drawn) | 32.1 µM (active)
35 | N=C(N)c1ccc(OCCCCCOc2ccc(C(=N)N)cc2)cc1 | 9.9 µM (active)

System: not listed separately
Assay: NIH-3T3 fibroblast cytotoxicity, dose response, cytotoxicity control, cell-based, fluorescence, Alamar Blue, secondary assay (AID 2327);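 note: NIH-3T3 mouse fibroblasts cultured with fluconazole at 8 µg/mL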
Format: functional
Conditions: not given

Row | Structure (SMILES) | EC50
36 | O=C(O)c1cc(-c2ccc(O)cc2)on1 | > 160 µM (inactive)
37 | FC(F)(F)COc1nc(OCC(F)(F)F)nc(N2CCN(c3ccccc3)CC2)n1 | > 160 µM (inactive)
38 | Cc1ccc(C)c(NC(S)=NNC(=O)c2csc(C)c2)c1 | 67.2 µM (active)
39 | O=C(NC(=S)Nn1cnc2c(cnn2-c2ccccc2)c1=O)c1ccc(Cl)cc1 | 143 µM (inconclusive)
40 | CCCCCCCSc1nc(N)cc(O)n1 | > 150 µM (inactive)
41 | O=S(=O)(NCC(c1ccco1)N1CCN(c2ccc(F)cc2)CC1)c1ccc2c(c1)OCCO2 (stereo not drawn) | > 150 µM (inactive)
42 | Cc1n[nH]c(C)c1CCNCc1ccc(OCC(O)CN2CCCCC2)cc1 (stereo not drawn) | > 150 µM (inconclusive)
43 | CC(C)=CCc1c2c(c(O)c3c(=O)c4c(oc13)-c1cc(O)c(O)cc1OC4C=C(C)C)C=CC(C)(C)O2 (stereo not drawn) [CYCLOHETERPHYLLIN] | 16.5 µM (inconclusive)

System: Streptococcus
Assay: Group A Streptococcus viability loss, dose response, counter-screen for streptokinase expression inhibitor project, luminescence, BacTiterGlo (AID 1915);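 note: potency for reduction of bacterial viability or growth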
Format: functional, organism-based
Conditions: not given

Row | Structure (SMILES) | EC50
44 | O=c1cc(N2CCCCC2)c(-c2ccccc2)nn1Cc1c(Cl)cccc1Cl | 5.18 µM (active)
45 | N=C(N)c1ccc(OCCCCCOc2ccc(C(=N)N)cc2)cc1 | < 0.06 µM (active)
46 | CC(C)=CCc1c2c(c(O)c3c(=O)c4c(oc13)-c1cc(O)c(O)cc1OC4C=C(C)C)C=CC(C)(C)O2 (stereo not drawn) [CYCLOHETERPHYLLIN] | 4.01 µM (active)

System: not listed separately
Assay: cytotoxicity toward NIH3T3 fibroblasts, dose response, counter-screen, cell-based, ATP luminescence, mouse fibroblasts (AID 2010);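 note: cells exposed to compound for about 90 hours before reading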
Format: functional
Conditions: not given

Row | Structure (SMILES) | EC50
47 | O=C(NCCc1c[nH]c2ccccc12)C1CCC(Cn2c(=S)[nH]c3ccccc3c2=O)CC1 (stereo not drawn) | > 60 µM (not active)

Biological target: T4, Zinc finger protein mex-5 (Caenorhabditis elegans, UniProt Q9XUB2)
T4 sequence (Q9XUB2 whole entry): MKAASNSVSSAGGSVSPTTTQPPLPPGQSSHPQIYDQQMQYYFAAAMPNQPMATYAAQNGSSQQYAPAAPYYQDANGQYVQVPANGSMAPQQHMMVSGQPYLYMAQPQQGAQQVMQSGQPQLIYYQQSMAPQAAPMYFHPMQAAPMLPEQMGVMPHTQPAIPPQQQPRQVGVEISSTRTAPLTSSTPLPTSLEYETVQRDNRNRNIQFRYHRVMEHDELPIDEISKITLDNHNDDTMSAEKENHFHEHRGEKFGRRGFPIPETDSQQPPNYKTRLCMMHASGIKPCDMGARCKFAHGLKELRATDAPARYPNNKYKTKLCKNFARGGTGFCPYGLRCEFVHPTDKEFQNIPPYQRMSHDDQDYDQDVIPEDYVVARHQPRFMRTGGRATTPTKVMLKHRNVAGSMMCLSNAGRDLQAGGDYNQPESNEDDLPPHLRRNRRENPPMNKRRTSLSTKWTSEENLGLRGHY
Assay: MEX-5/TCR-2 RNA interaction inhibitors, dose response, biochemical, C. elegans, fluorescence polarization (AID 1960)
Conditions: not given

Row | Structure (SMILES) | EC50
48 | COc1ccc(N/C=C2/C(=O)NC(=S)N(Cc3ccccc3)C2=O)c(OC)c1 | > 300 µM (inconclusive)
